Reference: patent US20220211731A1, “COMPOSITION FOR PROMOTING GLP-1 SECRETION” (SUNTORY HOLDINGS LIMITED, priority 2019, published 2022)

Experiments:
[1] = Distribution ratio between pure water and toluene; format: physicochemical; settings: organic layer and aqueous layer could not be separated
Method: After each about 100 mL of pure water and toluene was charged into a separatory funnel, 30 mg of each steviol glycoside was added. The separatory funnel was sealed to avoid liquid leakage, and stirred with shaking using a shaker for about 30 minutes, and then allowed to stand. When the liquid layer was separated into two layers, the distribution ratio was measured by LCMS after sampling was performed from each layer.

H716 = test: GLP-1 secretion amount of sweeteners, Experimental Example 1; format: cell-based, human; settings: H716, stock solution added, quantitation after further 24 hours, PBS as negative control, FIG. 1
Method: RebA, RebB, RebM, RebN, RebD, RebC, MogV, and stevioside were examined for their GLP-1 secretion-promoting effects. Specifically, the amount of GLP-1 secretion was measured by the following procedures.
Each test substance B, C, D, E, F, G, I, or J vas dissolved in PBS (Thermo Fisher Scientific Inc.) (Cat. No. 14190250) to obtain a stock solution. The concentration of the stock solution is shown below:
B (RebA); 5 mM, C (RebB); 1M, D (RebM); 2.5 mM, E (RebN); 1M, F (RebD); 2.5 mM, G (RebC); 2.5 mM, I (MogV); 1M, J(stevioside);1M
H716 (ATCC) (Cat. No. ATCC® CCL-251) was cultured in RPMI 1640 (10% FBS ((Thermo Fisher Scientific Inc.) (Cat. No. 10439024), 1 mM Sodium Pyruvate) in an incubator at 37° C., 5% CO2.
The preculture was performed for 2 weeks, and the cells were sufficiently recovered, and then cell stocks were prepared.
Cells were seeded in 96-well plates at 2×10^5 cells/90 μL (high) per well (N=4). At this time, the content of FBS in the medium was lowered to 0.5% to suppress cell proliferation.
After 24 hours, the sample at the highest concentration (i.e., stock solution) was added by 10 each.
After further 24 hours, quantitation of GLP-1 was performed. Specific procedures were followed the user guide of Human GLP-1 (7-36 amide) immunoassay kit (Cat. No. AL359) (Lot number 2361115) provided by PerkinElmer, Inc. PBS was used as a negative control (no sample).

[2] = Measurement of surface tension by plate method; format: physicochemical; settings: compared with other glycosides
Method: Surface tension Q is measured by a plate method. For example, a glycoside sweetener, which is a test substance, is added in an amount to have Brix 10 on a sucrose basis to prepare an aqueous solution. The surface tension of the prepared aqueous solution is measured by a plate method using an automatic surface tension meter (CBVP-Z type, manufactured by Kyowa Interface Science Co., Ltd).
Aqueous solutions containing RebA, RebD, and RebM (commercially available products) each were prepared. The contents of RebA, RebD, and RebM were aligned to Brix 10 on a sucrose basis. That is, the contents of RebA, RebD, and RebM were 333 ppm, 351 ppm, and 351 ppm, respectively. The surface tension of the obtained aqueous solution was measured by a plate method using an automatic surface tension meter (CBVP-Z type, manufactured by Kyowa Interface Science Co., Ltd). Water was used as a control and tested in the same manner.

[3] = Dissolution of sample in 1% DMSO-containing PBS; format: physicochemical; settings: final concentration of 1.5 mM (#24)
Method: To 20 mg of RebC, 21 μL of DMSO (manufactured by FUJIFILM Wako Pure Chemical Corporation, model number: 037-24053) was added. The mixture was then stirred by vortex and allowed to stand for several hours to obtain a stock solution having a RebC concentration of 1,000 mM. The obtained stock solution and PBS were used to prepare a 10 mM solution.
The 10 mM solution was diluted as needed with 1% DMSO-containing PBS to obtain Sample G-1 mM to Sample G-10 mM. The concentrations of RebC are described in Table 1.
For Sample B processed, final concentrations of 0.025 mM (#11) and 0.05 mM (#12) were added to the concentrations to be tested (0.1 to 2.5 mM).

Row | emulsification phenomenon when measuring the distribution ratio [1] | surfactant effect (surface tension) [2] | dissolution of sample [3] | Compound | amount of GLP-1 secretion compared with no sample (H716)
1 | had an emulsification phenomenon | higher than that of other glycosides |  | C=C1C[C@@]23CC[C@H]4[C@@](C)(CCC[C@@]4(C)C(=O)O[C@@H]4O[C@H](CO)[C@@H](O)[C@H](O)[C@H]4O)[C@@H]2CC[C@]1(O[C@@H]1O[C@H](CO)[C@@H](O)[C@H](O[C@@H]2O[C@H](CO)[C@@H](O)[C@H](O)[C@H]2O)[C@H]1O[C@@H]1O[C@H](CO)[C@@H](O)[C@H](O)[C@H]1O)C3 [RebA, Rebaudioside A] | significantly larger amounts of GLP-1 secretion than no sample
2 |  |  |  | C[C@H](CC[C@@H](O[C@@H]1O[C@H](CO[C@@H]2O[C@H](CO)[C@@H](O)[C@H](O)[C@H]2O)[C@@H](O)[C@H](O)[C@H]1O[C@@H]1O[C@H](CO)[C@@H](O)[C@H](O)[C@H]1O)C(C)(C)O)[C@H]1CC[C@@]2(C)[C@@H]3CC=C4[C@@H](CC[C@H](O[C@@H]5O[C@H](CO[C@@H]6O[C@H](CO)[C@@H](O)[C@H](O)[C@H]6O)[C@@H](O)[C@H](O)[C@H]5O)C4(C)C)[C@]3(C)[C@H](O)C[C@]12C [MogV, mogroside V] | significantly larger amounts of GLP-1 secretion than no sample
3 |  |  |  | rebaudioside B [RebB] | significantly larger amounts of GLP-1 secretion than no sample
4 |  |  | not able to be dissolved | rebaudioside C [RebC] | significantly larger amounts of GLP-1 secretion than no sample
5 |  |  |  | C=C1C[C@@]23CC[C@H]4[C@@](C)(CCC[C@@]4(C)C(=O)O[C@@H]4O[C@H](CO)[C@@H](O)[C@H](O)[C@H]4O)[C@@H]2CC[C@]1(O[C@@H]1O[C@H](CO)[C@@H](O)[C@H](O)[C@H]1O[C@@H]1O[C@H](CO)[C@@H](O)[C@H](O)[C@H]1O)C3 [stevioside, Stevioside] | significantly larger amounts of GLP-1 secretion than no sample
